Measurements as given in patent US20160031941A1, “TARGETING PEPTIDES THAT BIND S. MUTANS, CONSTRUCTS COMPRISING SUCH PEPTIDES AND USES THEREOF” (priority 2014, published 2016).
Like-named read-outs stand apart in the source and are kept apart here. Ends that are not written are not given here. Peptide text beside a SMILES is read from it.

Experiments:
S. mutans [1] = details: Streptococcus mutans
MRSA = assay: MIC of antimicrobial peptides; format: cell-based, methicillin resistant Staphylococcus aureus
Method: (§1) Typically, the in vitro antimicrobial activity of antimicrobial agents is tested using standard NCCLS bacterial inhibition assays, or MIC tests (see, National Committee on Clinical Laboratory Standards “Performance Standards for Antimicrobial Susceptibility Testing,” NCCLS Document M100-S5 Vol. 14, No. 16, December 1994; “Methods for dilution antimicrobial susceptibility test for bacteria that grow aerobically-Third Edition,” Approved Standard M7-A3, National Committee for Clinical Standards, Villanova, Pa.).

B. subtilis = assay: MIC of antimicrobial peptides; format: cell-based
Method: as §1

T. rubrum = assay: MIC of antimicrobial peptides; format: cell-based
Method: as §1

S. mutans [2] = format: cell-based
Method: as §1

E. coli = assay: MIC of antimicrobial peptides; format: cell-based
Method: as §1

P. aeruginosa = format: cell-based
Method: as §1

A. niger = assay: MIC of antimicrobial peptides; format: cell-based
Method: as §1

C. difficile = format: cell-based
Method: as §1

S. pneumoniae = format: cell-based
Method: as §1

S. epidermidis = format: cell-based
Method: as §1

C. jeikeium = format: cell-based
Method: as §1

A. baumannii = format: cell-based
Method: as §1

CC[C@H](C)[C@H](NC(=O)CNC(=O)[C@H](CCCCN)NC(=O)[C@H](CCCNC(=N)N)NC(=O)[C@@H](NC(=O)[C@@H](NC(=O)[C@H](CCCNC(=N)N)NC(=O)[C@H](CC(C)C)NC(=O)[C@H](CC(N)=O)NC(=O)[C@H](CCCCN)NC(=O)CNC(=O)CNC(=O)CNC(=O)[C@H](CCCCN)NC(=O)CNC(=O)[C@H](CC(C)C)NC(=O)[C@H](C)NC(=O)[C@H](CCC(N)=O)NC(=O)[C@@H](NC(=O)[C@H](CCC(N)=O)NC(=O)[C@H](CO)NC(=O)[C@H](CCCNC(=N)N)NC(=O)[C@H](CC(N)=O)NC(=O)[C@H](CCC(N)=O)NC(=O)[C@H](CC(C)C)NC(=O)[C@H](CCCNC(=N)N)NC(=O)[C@H](Cc1ccccc1)NC(=O)[C@H](CCC(N)=O)NC(=O)[C@@H](N)[C@@H](C)O)[C@@H](C)O)[C@@H](C)CC)[C@@H](C)CC)C(=O)N[C@@H](Cc1c[nH]cn1)C(=O)N[C@H](C(=O)N[C@H](C(=O)N[C@@H](CCCCN)C(=O)N[C@@H](CCCCN)C(=O)N[C@@H](Cc1ccc(O)cc1)C(N)=O)[C@@H](C)CC)[C@@H](C)CC [F7/11/15 sub Q_C16G2]
% viability remaining (S. mutans [1]): 93%

CC[C@H](C)[C@H](NC(=O)CNC(=O)[C@@H](N)CCSC)C(=O)N[C@H](C(=O)N[C@@H](C)C(=O)NCC(=O)N[C@H](C(=O)N[C@H](C(=O)N[C@@H](CCCCN)C(=O)N[C@@H](Cc1ccccc1)C(=O)N[C@H](C(=O)N[C@@H](CCCCN)C(=O)NCC(=O)N[C@@H](CC(C)C)C(=O)N[C@H](C(=O)N[C@@H](CCC(=O)O)C(=O)N[C@@H](CCCCN)C(=O)N[C@@H](Cc1ccccc1)C(=O)N[C@H](C(=O)NCC(=O)N[C@@H](CCCCN)C(=O)O)[C@@H](C)O)[C@@H](C)CC)[C@@H](C)CC)[C@@H](C)CC)[C@@H](C)CC)[C@@H](C)CC [PF-006]
MIC (MRSA): MRSA, 50 μM | MIC (B. subtilis): B. subtilis, 25 μM

CSCC[C@H](N)C(=O)N[C@@H](CCCCN)C(=O)N[C@@H](CCCNC(=N)N)C(=O)N[C@@H](CCCNC(=N)N)C(=O)N[C@@H](CCCNC(=N)N)C(=O)N[C@@H](CS)C(=O)N[C@@H](CC(N)=O)C(=O)N[C@@H](Cc1c[nH]c2ccccc12)C(=O)N[C@@H](CS)C(=O)NCC(=O)N[C@@H](CCCCN)C(=O)N[C@@H](CC(C)C)C(=O)N[C@@H](Cc1ccccc1)C(=O)N[C@@H](Cc1ccc(O)cc1)C(=O)N[C@@H](CC(C)C)C(=O)N[C@@H](CCC(=O)O)C(=O)N[C@@H](CCC(=O)O)C(=O)N[C@@H](CCCCN)C(=O)N[C@@H](CO)C(=O)N[C@@H](CCCCN)C(=O)N[C@@H](CCC(=O)O)C(=O)N[C@@H](C)C(=O)N[C@@H](Cc1ccc(O)cc1)C(=O)N[C@@H](CS)C(=O)N[C@@H](CS)C(=O)N[C@@H](CCCCN)C(=O)N[C@@H](CCC(=O)O)C(=O)N[C@@H](CS)C(=O)N[C@@H](CCCNC(=N)N)C(=O)N[C@@H](CCCCN)C(=O)N[C@@H](CCCCN)C(=O)N[C@@H](C)C(=O)N[C@@H](CCCCN)C(=O)N[C@@H](CCCCN)C(=O)N[C@H](C(=O)N[C@@H](CCCCN)C(=O)N[C@@H](CCCCN)C(=O)O)C(C)C [PF-307] (H-MKRRRCNWCGKLFYLEEKSKEAYCCKECRKKAKKVKK-OH; N-terminus and C-terminus assumed)
MIC (T. rubrum): T. rubrum, 50 μM | MIC (B. subtilis): B. subtilis, 50 μM

FESKILNASKELDKEKKVNTALSFNSHQDFAKAYQNGKI [PF-606]
MIC (S. mutans [2]; S. mutans): S. mutans, 50 μM | MIC (MRSA): MRSA, 50 μM | MIC (E. coli): E. coli, 50 μM

FIRKFLQKLHL [K-16]
MIC (S. mutans [2]; S. mutans): S. mutans, 8 μM | MIC (P. aeruginosa): 12.5 µM | MIC (MRSA): MRSA, 25 μM

GSVIKKRRKRMAKKKHRKLLKKTRIQRRRAGK [PF-527]
MIC (MRSA): MRSA, 50 μM | MIC (A. niger): A. niger, 50 μM | MIC (T. rubrum): T. rubrum, 25 μM

KFQGEFTNIGQSYIVSASHMSTSLNTGK [PF-583]
MIC (MRSA): MRSA, 50 μM

KFSDQIDKGQDALKDKLGDL [PF-525]
MIC (A. niger): A. niger, 50 μM

KNKKQTDILEKVKEILDKKKKTKSVGQKLY [PF-538]
MIC (C. difficile; C. difficile): C. difficile, 25 μM

LGLTAGVAYAAQPTNQPTNQPTNQPTNQPTNQPTNQPRW-NH2 [PF-520]
MIC (S. pneumoniae; S. pneumoniae): 50 µM

LSEMERRRLRKRA-NH2 [PF-529]
MIC (S. pneumoniae): 50 µM | MIC (A. niger): A. niger, 50 μM

LSLATFAKIFMTRSNWSLKRFNRL [PF-278]
MIC (T. rubrum): T. rubrum, 50 μM

MIRIRSPTKKKLNRNSISDWKSNTSGRFFY [PF-283]
MIC (T. rubrum): T. rubrum, 50 μM | MIC (B. subtilis): B. subtilis, 50 μM

MRFGSLALVAYDSAIKHSWPRPSSVRRLRM [PF-672]
MIC (MRSA): MRSA, 1.56 μM | MIC (A. niger): A. niger, 3 μM

NYAVVSHT [PF-209]
MIC (MRSA): MRSA, 50 μM

RESKLIAMADMIRRRI-NH2 [PF-545]
MIC (MRSA): MRSA, 50 μM

SLQSQLGPCLHDQRH [PF-448]
MIC (A. niger): A. niger, 25 μM

TAFRLANRSATQALGKGGGKNLRIIRKGIHIIKKY-NH2 (C-terminus assumed) [F2/6/10-A2/6/10_C16G2]
% viability remaining (S. mutans [1]): 78%

TFFRLFNRSFTQALAKGGGKNLRIIRKGIHIIKKY-NH2 (C-terminus assumed) [G15-A15_C16G2]
% viability remaining (S. mutans [1]): 47%

TFFRLFNRSFTQALDKGGGKNLRIIRKGIHIIKKY-NH2 (C-terminus assumed) [G15-D15_C16G2]
% viability remaining (S. mutans [1]): 47%

TFFRLFNRSFTQALFKGGGKNLRIIRKGIHIIKKY-NH2 (C-terminus assumed) [G15-F15_C16G2]
% viability remaining (S. mutans [1]): 29%

TFFRLFNRSFTQALGKGGGKNLRIIRKGIHIIKKY-NH2 [C16G2, reference compound]
% viability remaining (S. mutans [1]): antimicrobial peptide and GGG linker showed 5-18% remaining activity

TFFRLFNRSLTQALGKGGGKNLRIIRKGIHIIKKY-NH2 (C-terminus assumed) [F10-L10_C16G2]
% viability remaining (S. mutans [1]): 30%

TFFRLFNRSQTQALGKGGGKNLRIIRKGIHIIKKY-NH2 (C-terminus assumed) [F10 to Q10_C16G2]
% viability remaining (S. mutans [1]): 73%

TFFRLLNRSFTQALGKGGGKNLRIIRKGIHIIKKY-NH2 (C-terminus assumed) [F6-L6_C16G2]
% viability remaining (S. mutans [1]): 43%

TFFRLQNRSFTQALGKGGGKNLRIIRKGIHIIKKY-NH2 (C-terminus assumed) [F6 to Q6_C16G2]
% viability remaining (S. mutans [1]): 79%

TKKIELKRFVDAFVKKSYENYILERELKKLIKAINEELPTK [PF-600]
MIC (E. coli): E. coli, 50 μM

TLFRLFNRSFTQALGKGGGKNLRIIRKGIHIIKKY-NH2 (C-terminus assumed) [F2-L2_C16G2]
% viability remaining (S. mutans [1]): 63%

TLFRLLNRSLTQALGKGGGKNLRIIRKGIHIIKKY-NH2 (C-terminus assumed) [F2F6F10-L2L6L10_C16G2]
% viability remaining (S. mutans [1]): 26%

TQFRLFNRSFTQALGKGGGKNLRIIRKGIHIIKKY-NH2 (C-terminus assumed) [F2 to Q2_C16G2]
% viability remaining (S. mutans [1]): 47%

TWFRLFNRSFTQALGKGGGKNLRIIRKGIHIIKKY-NH2 (C-terminus assumed) [F2-W2_C16G2]
% viability remaining (S. mutans [1]): 45%

VLPFPAIPLSRRRACVAAPRPRSRQRAS [PF-168]
MIC (MRSA): MRSA, 50 μM

VYRKRKSILKIYAKLKGWH [K-2]
MIC (S. mutans [2]): 12.5 µM

WSRVPGHSDTGWKVWHRW-NH2 [PF-547]
MIC (S. mutans [2]): 12.5 µM | MIC (T. rubrum): T. rubrum, 25 μM | MIC (B. subtilis): B. subtilis, 25 μM

YIQFHLNQQPRPKVKKIKIFL-NH2 [PF-531]
MIC (S. epidermidis): 50 µM | MIC (C. difficile): 12.5 µM | MIC (S. mutans [2]): 12.5 µM | MIC (C. jeikeium): 6.25 µM | MIC (A. baumannii): 25 µM | MIC (P. aeruginosa): 50 µM | MIC (A. niger): A. niger, 25 μM | MIC (T. rubrum): T. rubrum, 50 μM | MIC (B. subtilis): B. subtilis, 25 μM
